Legend:
[1] = molecular target: T1, aggregated Aβ (Aβ1-42) injected into amygdaloid nucleus (Homo sapiens, UniProt P05067); experiment: Confirmation of imaging of amyloid in brain (ex vivo autoradiogram, Aβ1-42); design: species or system male Wistar rat; settings: brain slice 60 minutes after tail vein injection
T1 construct: Aβ1-42 (manufactured by Wako) was dissolved in phosphate buffer (pH 7.4); purchased Wako
Procedure: The following experiment was carried out in order to examine whether amyloid in brain can be imaged by the compound of the present invention.
(1) Aβ1-42 (manufactured by Wako) was dissolved in phosphate buffer (pH 7.4) and shaken at 37° C. for 72 hours, to obtain a 1 mg/mL suspension of aggregated Aβ (hereinafter referred to as amyloid suspension in the Examples).
(2) 2.5 μL (corresponding to […]) of the amyloid suspension was injected into an amygdaloid nucleus on one side of a male Wistar rat (7-week old). As a control, 2.5 μL of a phosphate buffered physiological saline solution (pH 7.4) was injected into an amygdaloid nucleus on the other side of the rat. The rats were examined 1 day after the injection of the amyloid suspension and the phosphate buffered physiological saline solution (pH 7.4).
(3) Compound 1 was dissolved in a 10 mg/mL ascorbic acid-containing physiological saline solution to obtain a sample solution (22 MBq/mL in radioactivity concentration in the sample solution). This solution was injected under thiopental anesthesia into the rat through the tail vein (dosage: 0.5 mL, dosed radioactivity: 11-13 MBq equivalent).
(4) Brain was removed 60 minutes after the injection to prepare a brain slice of 10 μm in thickness with a microtome (type: CM3050S, manufactured by LEICA). The brain slice was exposed to an imaging plate for 20 hours, and then image analysis was carried out by use of a Bio-imaging Analyzer (type: BAS-2500; manufactured by FUJIFILM Corporation).
(5) After the completion of the image analysis using the Bio-imaging Analyzer, […]
Thus, it was confirmed that amyloid was deposited on the slice (FIG. 6b).
The same procedures as in Example 12 were performed except using a solution of Compound 2 in a 10 mg/mL ascorbic acid as a sample solution (the radioactive concentration of the sample solution was 25 MBq/mL).
(1) Aβ1-42 (manufactured by Wako) was dissolved in phosphate buffer (pH 7.4) and shaken at 37° C. for 72 hours, to obtain 1 mg/mL of a suspension of aggregated Aβ (hereinafter referred to as amyloid suspension in the Examples).
(3) A sample solution (30 MBq/mL in radioactivity concentration, Example 24) in which Compound 4 was dissolved in a 10 mg/mL ascorbic acid-containing physiological saline solution and a sample solution (30 MBq/mL in radioactivity concentration, Example 25) in which Compound 6 was dissolved in a 10 mg/mL ascorbic acid-containing physiological saline solution were prepared. This solution was injected under thiopental anesthesia into the rat through the tail vein (dosage: 0.5 mL, dosed radioactivity: 11-15 MBq equivalent).
Thus, it was confirmed that amyloid was deposited on the slice (FIG. 12 and FIG. 13).

[2] = Transferability into brain and clearance; type: in vivo, male Wistar rats; settings: intravenous injection, rats
Procedure: Using Compound 1 (Example 10) and Compound 2 (Example 11), a time course change of radioactive accumulation in brain of male Wistar rats (7-week old) was measured.
A diethyl ether solution of Compound 1 (Example 10) prepared in Example 3, a diethyl ether solution of Compound 2 (Example 11) prepared in Example 6 and a diethyl ether solution of [^123I]-IMPY (Comparative Example 5) prepared in Reference Example 1 were each diluted with 10 mg/mL ascorbic acid-containing physiological saline solution to adjust to a radioactive concentration of 8-12 MBq/mL. 0.05 mL each of the prepared sample solutions was injected under thiopental anesthesia into the tail vein of the rats. The rats were sacrificed by bleeding from abdominal artery, and brains were removed and subjected to measurement of mass of brains and further subjected to measurement of radioactivity (hereinafter referred to as A in this Example) with a single channel analyzer (detector type: SP-20 manufactured by OHYO KOKEN KOGYO Co., Ltd.) 2, 5, 30 and 60 minutes after the injection. Further, the radioactivity level of the rest of the whole body was measured in the same manner as above (hereinafter referred to as B in this Example). Using these measurement results, radioactive distribution per unit weight of brain (% ID/g) at the respective time points were calculated in accordance with the following formula (3).
Three animals were used for the experiment at the respective time points.
Using Compound 4 and Compound 6, a time course change of radioactive accumulation in brain of male Wistar rats (7-week old) was measured.
Compound 4 (Example 22), Compound 6 (Example 23) and a solution of [^123I]-IMPY (Comparative Example 8) prepared above in Reference Example 1 were each diluted with a 10 mg/mL ascorbic acid-containing physiological saline solution to prepare solutions (20-31 MBq/mL in radioactive concentration). 0.05 mL each of the prepared sample solutions was injected under thiopental anesthesia into the tail vein of the respective Wistar rat (7-week old). The rats were sacrificed by bleeding from abdominal artery, and brains were removed and subjected to measurement of mass of brains and further subjected to measurement of radioactivity (hereinafter referred to as A in this Example) with a single channel analyzer (detector type: SP-20 manufactured by OHYO KOKEN KOGYO Co., Ltd.) 2, 5, 30 and 60 minutes after the injection. Further, the radioactivity level of the rest of the whole body was measured in the same manner as above (hereinafter referred to as B in this Example). Using these measurement results, radioactive distribution per unit weight of brain (% ID/g) at the respective time points were calculated in accordance with the following formula (5).

T1 sequence (P05067 672-713): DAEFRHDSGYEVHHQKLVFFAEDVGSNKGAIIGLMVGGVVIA

| Substance | Accumulation of radioactivity in amygdaloid nucleus on the amyloid-injected side [1] | Radioactive distribution per unit weight of brain ([2]; After 2 min., Table 5) | Radioactive distribution per unit weight of brain ([2]; After 5 min., Table 5) | Radioactive distribution per unit weight of brain ([2]; After 30 min., Table 5) | Radioactive distribution per unit weight of brain ([2]; After 60 min., Table 5) | Radioactive distribution per unit weight of brain ([2]; After 2 min., Table 7) | Radioactive distribution per unit weight of brain ([2]; After 5 min., Table 7) | Radioactive distribution per unit weight of brain ([2]; After 30 min., Table 7) | Radioactive distribution per unit weight of brain ([2]; After 60 min., Table 7) |
| --- | --- | --- | --- | --- | --- | --- | --- | --- | --- |
| 2-(4′-ethoxyphenyl)-6-[^123I]iodoimidazo[1,2-a]pyridine [Compound 2] | marked accumulation of radioactivity | 0.89 % ID/g | 0.66 % ID/g | 0.13 % ID/g | 0.04 % ID/g | – | – | – | – |
| 2-[4′-(2″-hydroxyethoxy)phenyl]-6-[^123I]iodoimidazo[1,2-a]pyridine [Compound 1] | marked accumulation of radioactivity | 0.90 % ID/g | 0.52 % ID/g | 0.06 % ID/g | 0.01 % ID/g | – | – | – | – |
| 2-[4′-(3″-hydroxypropoxy)phenyl]-6-[^123I]iodoimidazo[1,2-a]pyridine [Compound 6] | marked accumulation of radioactivity | – | – | – | – | 0.81 % ID/g | 0.56 % ID/g | 0.07 % ID/g | 0.02 % ID/g |

Reference: patent US20100249419A1, “UTILIZATION OF NOVEL COMPOUNDS WITH AMYLOID AFFINITY AND METHOD OF PRODUCING THE SAME” (NIHON MEDI-PHYSICS CO., LTD., priority 2007, published 2010)
